{
  "source": "patent US20250295109A1",
  "about": "“UNIVERSAL SYNERGIST FOR INSECT ATTRACTANTS” (North Carolina State University, priority 2022, published 2025)",
  "key": {"male CEW antenna": {"test_system": "male CEW antenna", "test": "GC-EAD of female sex pheromone gland extract on male CEW antenna", "set-up": "species or system Helicoverpa zea", "conditions": "compound present in CEW female sex pheromone gland extract", "protocol": "Based on the finding that nonanal attracts male CEW in laboratory and field behavioral studies, and as described hereinbelow, a study of the female sex pheromone gland extract of Helicoverpa zea was performed using a gas chromatography-electroantennograom detector (GC-EAD), a device that couples a GC to an insect antenna, the olefactory organ of insects that serves as a biological detector. In this device, the GC separates chemicals in a mixture and presents them to the antenna, and its electrophysiological responses reveal which chemicals it senses. […]\nThe sex pheromone glands of multiple CEW females were dissected and the contents extracted with hexane. […] In parallel to the GC, the electrophysiological response of the antenna is recorded to identify the active compounds. […] Gland extracts were also analyzed using gas chromatography-mass spectrometry (GC-MS) (6890 GC and 5975 MS, Agilent Technologies, Palo Alto, California, United States of America) The GC-MS was operated in pulsed splitless mode (15 psi for 0.5 min, then 6 psi) and equipped with a DB-WAXetr column (30 m×0.25 mm, df=0.25 μm, Agilent Technologies, Palo Alto, California, United States of America), and helium was used as the carrier gas at an average velocity of 34 cm/s. […]"}, "[1]": {"test_system": "male corn earworm (CEW, Helicoverpa zea)", "test": "field trapping of male CEW in Hartstack traps, nonanal and/or 1-hexanol", "format": "in vivo", "excerpt": "FIG. 11 is a graph showing the results of a field trapping study of male com earworm (CEW, Helicoverpa zea) using traps containing a dispenser containing a solution of 0.5% nonanal and/or 0.5% 1-hexanol alone or also containing a dispenser for a commercial CEW sex pheromone lure. Effectiveness is reported as number of male CEW capture per day per trap.\nTo determine the effects of 1-hexanol and combinations of 1-hexanol and nonanal, Hartstack traps with or without the commercial CEW sex pheromone lure and with or without one or both of nonanal and 1-hexanol were placed in sorghum or corn fields. Nonanal and 1-hexanol, if present, were present at 0.5% on a weight to weight basis with the major component of the commercial pheromone lure."}},
  "data": [
    {"smiles": "CCCCCCO", "note": "[1-hexanol]", "values": [
      {"measurement": "EAD response of the antenna", "setting": "male CEW antenna", "result": "elicit an EAD response in the antenna"},
      {"measurement": "effectiveness in trapping male CEW, without commercial pheromone lure", "setting": "[1]; 0.5% w/w level, without the commercial pheromone lure, sorghum or corn fields", "result": "not effective in trapping male CEW"},
      {"measurement": "effectiveness of commercial lure in trapping male CEW when combined", "setting": "[1]; 0.5% w/w with major component of commercial pheromone lure, used in combination with the commercial lure", "result": "improved its effectiveness"}
    ]}
  ]
}
